Source: ChEMBL document CHEMBL3390832 (Medchemcomm, 2011)

Columns and labels:
Glutamate NMDA receptor = test: Displacement of [3H]CGP-39653 from NMDA receptor in rat brain cortical membranes; type: cell membranes
[1] = target: T1, Metabotropic glutamate receptor 3 (Homo sapiens, UniProt Q14832); test: Agonist activity at human mGluR3 receptor expressed in HEK cells; type: cell-based, HEK293
[2] = target: T2, Metabotropic glutamate receptor 7 (Homo sapiens, UniProt Q14831); test: Agonist activity at human mGluR7 receptor expressed in HEK cells; type: cell-based, HEK293
[3] = target: T1, Metabotropic glutamate receptor 3; test: Binding affinity to human mGluR3 receptor expressed in HEK cells; type: cell-based, HEK293
[4] = target: T2, Metabotropic glutamate receptor 7; test: Binding affinity to human mGluR7 receptor expressed in HEK cells; type: cell-based, HEK293
[5] = target: T3, G-protein coupled receptor family C group 6 member A (Mus musculus, UniProt Q8K4Z6); test: Agonist activity at mouse GPRC6A expressed in human tsA201 cells coexpressing GalphaqG66D after 30 mins by inositol phosphate turnover assay; type: functional, cell-based
T3 sequence (Q8K4Z6 whole entry): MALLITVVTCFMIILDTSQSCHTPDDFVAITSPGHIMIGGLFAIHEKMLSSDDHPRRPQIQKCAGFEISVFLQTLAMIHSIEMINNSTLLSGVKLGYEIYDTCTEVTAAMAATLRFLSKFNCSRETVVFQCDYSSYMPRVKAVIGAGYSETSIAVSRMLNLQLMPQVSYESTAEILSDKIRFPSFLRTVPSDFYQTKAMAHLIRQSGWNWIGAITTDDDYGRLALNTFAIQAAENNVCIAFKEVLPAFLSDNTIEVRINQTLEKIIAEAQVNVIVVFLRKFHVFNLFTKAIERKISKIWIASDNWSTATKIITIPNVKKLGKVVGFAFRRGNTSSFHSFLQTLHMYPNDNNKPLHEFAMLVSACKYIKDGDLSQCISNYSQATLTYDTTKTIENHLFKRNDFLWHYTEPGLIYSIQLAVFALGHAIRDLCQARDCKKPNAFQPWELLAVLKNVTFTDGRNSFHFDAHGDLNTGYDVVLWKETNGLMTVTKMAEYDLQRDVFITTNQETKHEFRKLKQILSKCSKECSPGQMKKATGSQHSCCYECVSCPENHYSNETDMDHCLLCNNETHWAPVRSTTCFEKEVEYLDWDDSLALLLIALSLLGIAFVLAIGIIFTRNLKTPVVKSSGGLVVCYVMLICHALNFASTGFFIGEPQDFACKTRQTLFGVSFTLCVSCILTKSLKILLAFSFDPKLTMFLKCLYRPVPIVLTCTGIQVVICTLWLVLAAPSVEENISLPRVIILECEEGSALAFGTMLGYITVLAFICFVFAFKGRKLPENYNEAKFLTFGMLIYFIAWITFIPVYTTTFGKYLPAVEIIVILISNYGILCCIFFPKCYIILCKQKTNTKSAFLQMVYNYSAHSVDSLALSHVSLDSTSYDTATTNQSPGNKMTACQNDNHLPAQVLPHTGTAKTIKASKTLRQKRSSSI

T1 sequence (Q14832 whole entry): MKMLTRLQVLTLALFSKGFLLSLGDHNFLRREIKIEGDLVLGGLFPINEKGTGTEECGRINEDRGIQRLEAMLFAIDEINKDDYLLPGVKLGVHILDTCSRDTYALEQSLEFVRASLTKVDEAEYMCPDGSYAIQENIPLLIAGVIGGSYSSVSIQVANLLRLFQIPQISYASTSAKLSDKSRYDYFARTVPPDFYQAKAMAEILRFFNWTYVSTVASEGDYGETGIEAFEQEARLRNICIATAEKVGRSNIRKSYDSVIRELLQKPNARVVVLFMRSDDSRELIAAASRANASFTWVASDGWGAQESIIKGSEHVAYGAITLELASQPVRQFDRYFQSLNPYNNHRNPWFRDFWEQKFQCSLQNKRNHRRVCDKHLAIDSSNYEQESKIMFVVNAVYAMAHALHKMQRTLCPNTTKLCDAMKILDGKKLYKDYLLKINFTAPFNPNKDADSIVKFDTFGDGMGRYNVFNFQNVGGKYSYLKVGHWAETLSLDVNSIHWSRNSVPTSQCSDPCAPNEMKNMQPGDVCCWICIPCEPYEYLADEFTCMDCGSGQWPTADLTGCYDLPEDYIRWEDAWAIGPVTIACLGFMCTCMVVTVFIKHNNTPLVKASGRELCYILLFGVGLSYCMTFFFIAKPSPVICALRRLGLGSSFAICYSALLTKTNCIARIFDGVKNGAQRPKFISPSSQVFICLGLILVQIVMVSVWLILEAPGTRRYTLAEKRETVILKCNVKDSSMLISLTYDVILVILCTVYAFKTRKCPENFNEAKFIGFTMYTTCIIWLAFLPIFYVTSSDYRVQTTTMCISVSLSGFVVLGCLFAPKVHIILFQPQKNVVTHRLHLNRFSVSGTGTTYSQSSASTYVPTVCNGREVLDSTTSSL
T2 sequence (Q14831 whole entry): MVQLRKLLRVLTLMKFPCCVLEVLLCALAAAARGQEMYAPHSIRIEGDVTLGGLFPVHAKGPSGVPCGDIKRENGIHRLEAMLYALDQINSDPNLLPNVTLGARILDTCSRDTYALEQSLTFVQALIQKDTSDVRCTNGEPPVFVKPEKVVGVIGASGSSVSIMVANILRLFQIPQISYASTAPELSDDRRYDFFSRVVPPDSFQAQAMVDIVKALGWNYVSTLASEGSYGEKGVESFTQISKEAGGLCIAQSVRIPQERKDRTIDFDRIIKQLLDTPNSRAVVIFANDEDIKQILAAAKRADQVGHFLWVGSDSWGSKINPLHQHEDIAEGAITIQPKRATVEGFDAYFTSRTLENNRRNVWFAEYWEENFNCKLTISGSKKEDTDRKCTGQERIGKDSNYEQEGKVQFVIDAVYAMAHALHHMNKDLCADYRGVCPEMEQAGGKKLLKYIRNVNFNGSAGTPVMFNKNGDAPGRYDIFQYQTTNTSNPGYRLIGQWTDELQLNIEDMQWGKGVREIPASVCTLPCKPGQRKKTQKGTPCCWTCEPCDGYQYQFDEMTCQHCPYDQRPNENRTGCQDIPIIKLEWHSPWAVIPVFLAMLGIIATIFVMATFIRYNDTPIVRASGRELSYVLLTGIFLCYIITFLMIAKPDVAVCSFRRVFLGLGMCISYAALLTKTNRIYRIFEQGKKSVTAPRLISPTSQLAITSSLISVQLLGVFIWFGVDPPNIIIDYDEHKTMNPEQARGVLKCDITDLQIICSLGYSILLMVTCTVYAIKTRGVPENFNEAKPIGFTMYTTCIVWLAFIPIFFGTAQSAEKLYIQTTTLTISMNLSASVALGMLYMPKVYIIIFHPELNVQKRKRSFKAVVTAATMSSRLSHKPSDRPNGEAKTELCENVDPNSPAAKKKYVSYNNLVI

Compound	Ki (Glutamate NMDA receptor)	EC50 [1]	also measured
N[C@H](CCc1nsnc1O)C(=O)O	> 100 µM		
N[C@@H](CCC(=O)O)C(=O)O [GLUTAMIC ACID]		0.06 µM	EC50 [2]: 1.18 mM; Ki [3]: 0.0575 µM; Ki [4]: 1.17 mM
N=C(N)NCCC[C@H](N)C(=O)O [ARGININE]			EC50 [5]: 284 µM
N[C@]1(C(=O)O)C[C@H]1Cc1nsnc1O (relative stereo)	19 µM		
N[C@@]1(C(=O)O)C[C@H]1CC(=O)O (relative stereo)	72 µM	> 1000 µM	
N[C@@]1(C(=O)O)C[C@@H]1CC(=O)O (relative stereo)	77 µM	200 µM	Ki [3]: 200 µM
N[C@@H](CCc1nsnc1O)C(=O)O	> 100 µM		
